The record followed here is PubChem BioAssay (NCI).

Each structure is given as a SMILES string.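 Method: 48-hour compound exposure of cells in 96-well plates, five concentrations, linear interpolation of endpoints. TGI: total growth inhibition.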 A value given as a limit tells only on which side of the number the result lay.

Among the test systems are HCT-116 colon; EKVX NSCLC; A549 NSCLC; SW-620 colon; SF-268 CNS; SF-539 CNS; SF-295 CNS; MOLT-4 leukemia; SNB-75 CNS.
Common to all, as to experiment: inhibition of tumour cell growth, NCI panel, 48 h

With `CCCCN(CCCC)C(=Nc1ccccc1)N(CCCC)CCCC`, the TGI came out at 13.8 µM with HCT-116 colon; 17.5 µM in the test on EKVX NSCLC; 27.9 µM in the test with A549 NSCLC; 15.8 µM with SW-620 colon; 46.8 µM in the test with SF-268 CNS; 24.6 µM in the test on SF-539 CNS. In addition, the TGI stood at 23.1 µM in the test with SF-295 CNS, 13.1 µM with MOLT-4 leukemia and 37.7 µM in the test with SNB-75 CNS.
`COC(=O)C(=O)C(C#N)c1cccc2ccccc12` (centres undefined): the TGI in the test with HCT-116 colon, in the test with EKVX NSCLC, with A549 NSCLC, in the test with SW-620 colon, in the test with SF-268 CNS and in the test with SF-539 CNS was greater than 100 µM each time. Moreover, the TGI in the test with SF-295 CNS, in the test with MOLT-4 leukemia and with SNB-75 CNS was greater than 100 µM in each case.
Regarding `O=C(CC(O)(c1ccccc1)c1ccc(Cl)cc1)NC(=O)c1ccccc1O` (centres undefined), the TGI with HCT-116 colon was 52.6 µM; in the test with EKVX NSCLC, 68.2 µM; with A549 NSCLC, greater than 100 µM; with SW-620 colon, greater than 100 µM; in the test with SF-268 CNS, greater than 100 µM; in the test on SF-539 CNS, 46.8 µM. Besides, the TGI with SF-295 CNS came out at 26.3 µM; in the test on MOLT-4 leukemia, 46.7 µM; in the test on SNB-75 CNS it was 40.8 µM.
Turning to `CCCOC(=O)C1CCC(=O)N1C(=O)C(Cl)Cl` (centres undefined), the TGI in the test with HCT-116 colon, in the test with EKVX NSCLC, in the test on A549 NSCLC, in the test on SW-620 colon, with SF-268 CNS and in the test with SF-295 CNS was greater than 100 µM each time. For the same compound, the TGI in the test on MOLT-4 leukemia and in the test on SNB-75 CNS was greater than 100 µM each time.
As for `CN(C)CCCn1cnc2ncccc2c1=O`, the TGI in the test with HCT-116 colon, in the test with EKVX NSCLC, in the test with A549 NSCLC, with SW-620 colon, in the test on SF-268 CNS and in the test with SF-539 CNS was greater than 100 µM throughout. The TGI in the test on SF-295 CNS, with MOLT-4 leukemia and with SNB-75 CNS was greater than 100 µM in each case.
As for `CCOC(=O)C(C(=O)c1ccccc1-c1ccccc1C(=O)O)=P(c1ccccc1)(c1ccccc1)c1ccccc1`, the TGI with HCT-116 colon is 42 µM; in the test on EKVX NSCLC, greater than 100 µM; in the test on A549 NSCLC, greater than 100 µM; with SW-620 colon, greater than 100 µM; in the test on SF-268 CNS it was greater than 100 µM; in the test with SF-539 CNS it was 35.3 µM. Moreover, the TGI with SF-295 CNS is 88.8 µM; in the test with MOLT-4 leukemia, 79 µM; in the test on SNB-75 CNS, 47.8 µM.
For `O=C(c1ccccc1)c1nnn(Cc2cccc(Cl)c2)c1C(=O)c1ccccc1`, the TGI in the test with HCT-116 colon, in the test on EKVX NSCLC, with A549 NSCLC, in the test on SW-620 colon, in the test on SF-268 CNS and with SF-295 CNS was greater than 100 µM throughout. Moreover, the TGI in the test on MOLT-4 leukemia and in the test with SNB-75 CNS was greater than 100 µM throughout.
For `COc1ccc(NC(=O)CC/C(CC(=O)c2ccco2)=N/Nc2ccc([N+](=O)[O-])cc2[N+](=O)[O-])cc1`, the TGI in the test on HCT-116 colon, in the test on EKVX NSCLC, in the test with A549 NSCLC, with SW-620 colon, in the test on SF-268 CNS and in the test on SF-539 CNS was greater than 100 µM throughout. Besides, the results for the TGI with SF-295 CNS, in the test on MOLT-4 leukemia and in the test with SNB-75 CNS were greater than 100 µM, 97.3 µM and greater than 100 µM, respectively.
With `COC1CCC(=C2C(=O)OC(C)(C)OC2=O)N1` (centres undefined), the TGI in the test on HCT-116 colon, with EKVX NSCLC, in the test with A549 NSCLC, with SW-620 colon, with SF-268 CNS and with SF-539 CNS was greater than 100 µM in each case. In addition, the TGI with SF-295 CNS, in the test on MOLT-4 leukemia and with SNB-75 CNS was greater than 100 µM each time.
Consider `Cc1c(C(=O)/C=C/c2ccco2)[n+](=O)c2ccccc2n1[O-]`, for which the TGI with HCT-116 colon, in the test with EKVX NSCLC, in the test with A549 NSCLC, with SW-620 colon, in the test on SF-268 CNS and in the test on SF-539 CNS was greater than 100 µM throughout. For the same compound, the TGI in the test on SF-295 CNS, with MOLT-4 leukemia and in the test with SNB-75 CNS was greater than 100 µM in each case.
On to `COC(=O)C1=Cc2cc3c(cc2[C@H](c2ccc4c(c2)OCO4)C1C(=O)OC)OCO3` (some centres undefined), for which the TGI in the test with HCT-116 colon, in the test with EKVX NSCLC, in the test on A549 NSCLC, in the test with SW-620 colon, in the test on SF-268 CNS and with SF-539 CNS was greater than 100 µM in each case. Also, the TGI with SF-295 CNS, with MOLT-4 leukemia and in the test on SNB-75 CNS was greater than 100 µM throughout.
As to `N#Cc1c([N+](=O)[O-])cc(C(F)(F)F)cc1[N+](=O)[O-]`, the TGI in the test on HCT-116 colon was found to be 20 µM; with EKVX NSCLC, 32.9 µM; in the test with A549 NSCLC, 37.6 µM; with SW-620 colon, 8.77 µM; in the test with SF-268 CNS it was 27.3 µM; with SF-539 CNS, 11 µM. Further, the TGI with SF-295 CNS was determined as 10.3 µM; in the test with MOLT-4 leukemia, 4.95 µM; in the test with SNB-75 CNS, 20.1 µM.
Turning to `COC1OC(OC)C2C(c3c(C)cc(C)cc3C)=NOC12` (centres undefined), the TGI with HCT-116 colon, in the test with EKVX NSCLC, in the test with A549 NSCLC, in the test with SW-620 colon, with SF-268 CNS and in the test on SF-295 CNS was greater than 100 µM in each case. Moreover, the TGI in the test on MOLT-4 leukemia and with SNB-75 CNS was greater than 100 µM each time.
For `CCc1ccc(Cc2ccc(CC)c(NC(=O)C(=O)Cc3nc4ccccc4nc3C)c2CC)c(CC)c1NC(=O)C(=O)Cc1nc2ccccc2nc1C`, the TGI in the test on HCT-116 colon, with EKVX NSCLC, with A549 NSCLC, in the test on SW-620 colon, with SF-268 CNS and with SF-539 CNS was greater than 100 µM in each case. Also, the TGI in the test with MOLT-4 leukemia was greater than 100 µM; in the test on SNB-75 CNS it was 44.4 µM.
On to `CC(C)c1ccc2c(c1)CCC1C(C)(C)[C@@H](O)CC[C@]21C` (some centres undefined), for which the TGI was 34.1 µM in the test on HCT-116 colon; greater than 100 µM in the test on A549 NSCLC; greater than 100 µM in the test with SF-268 CNS; 65.1 µM with SF-539 CNS; 43.4 µM in the test on SF-295 CNS; 89.9 µM with MOLT-4 leukemia. Also, the TGI with SNB-75 CNS was 55.4 µM.
